From US20180000817A1, “TREATMENT OF HUTCHINSON-GILFORD PROGERIA SYNDROME AND DISEASES RELATED TO VASCULAR AGEING” (BIOCANT - ASSOCIAÇÃO DE TRANSFERÊNCIA DE TECNOLOGIA, priority 2015, published 2018)

How the values were obtained:
MMP-9 = MMP-9 (Homo sapiens, UniProt P14780); settings: cited from earlier work
LmnaG609G/G609G mice = test: In vivo treatment of progeria mice with BB-94; design: species or system mouse
Method: In vivo studies. 16 Lmna^G609G/G609G mice (male and female) were used. […] IP injections were used to administrate 30 mg/Kg/day of BB-94 in 3 mg/ml in PBS containing 0.01% Tween 80. The treatment was applied 5 times per week during 6 weeks (from week 5 to week 10). […] At the end of week 10 the mice were sacrificed and the selected parameters were evaluated.
Gene Expression Profiling using Fluidigm. Small parts of mice aortas were frozen to be analyzed. These parts were lysated and homogenized using a MagNA instrument and MagNA Lyser Green Beads (with 5 mm (diameter) stainless steel beads). Total RNA were then isolated and quantified. DELTAgene assays (FlexSix—Fluidigm) were designed for […] transcripts. The pre-amplification process was performed for 14 cycles in order to obtain sensitivity down to a single cDNA molecule. The oligos were synthesized by Sigma and dissolved at a concentration of 100 μM in water. For each assay a Primer Pair Mix was prepared containing 50 μM Forward Primer and 50 μM Reverse Primer. In order to prepare 10× Pre-amplification Primer Mix (500 nM each primer), 10 μL of each of the 96 Primer Pair Mixes (50 μM each primer) was mixed with […] buffer consisting of 10 mM Tris-HCl, pH 8.0; 0.1 mM EDTA; 0.25% Tween-20. In order to prepare 10× Assay (5 μM each primer) each Primer Pair Mix was diluted by mixing 10 μL Primer Pair Mix (50 μM each primer) with 90 μL buffer consisting of 10 mM Tris-HCl, pH 8.0; 0.1 mM EDTA; 0.25% Tween-20. A pre-mix containing cDNA and primers was done and treatment with exonuclease I was performed to remove non-hybridized primers. The Fluidigm® FLEXsix™ Gene expression IFC was used with EvaGreen chemistry. After a prime of the chip, a 10× assay mix and sample mix were prepared and pipetted into the inlets. The chip was loaded and data was collected using the BioMark HD™. Data was analyzed using Fluidigm® Real Time PCR Analysis v2.1 software.
So far no therapy has been developed to target specifically SMC loss. Most of the compounds identified so far in pre-clinical tests to treat progeria have been focused in the reduction of progerin quantities, by either reducing its production or increasing its degradation, in the reduction of progerin toxicity by targeting its aberrant prenylation, or identifying compounds capable of restoring pathological phenotypes downstream of progerin accumulation. Therefore we asked whether the inhibition of MMP13 in LmnaG609G/G609G mice could retard SMC loss. […] LmnaG609G/G609G mice (n=8 for treatment group and control group; age: 5 weeks) were IP injected 5 times a week (30 mg/Kg/day; 3 mg/mL in PBS). […] At this time point we evaluated SMC loss in the aortic arch.

HGPS-iPSC SMCs [1] = test: Cell detachment under arterial flow in microfluidic system (loss of function studies); assay type: cell-based, human; settings: for HGPS-iPSC SMC detachment: both clones, arterial flow 20 dyne/cm^2, up to 12 days, MMP13 inhibitor 8 nM, BB-94 20 nM
Method: After 4 h, a confluent cell layer was formed, which was then perfused with SmGM-2 medium at physiological flow rate (20 dyne/cm^2). Unless specified, all tests were performed at day 0 and after 4 days on flow culture conditions. Cell number and cell clumps were determined on slides stained with DAPI (20×) and normalized by image area (0.3524 mm^2). Cell clumps areas were evaluated by Image J software.
In case of calcification inhibition studies, cells were treated with SmGM-2 medium containing sodium pyrophosphate (0.9 mM, Sigma), and in case of farnesyltrasferase inhibitor studies, cells were treated with SmGM-2 medium containing Tipifarnib (1 μM) or Lonafarnib (20 μM, Absouce Diagnostics). In MMP, calcification and farnesyltransferase inhibition studies, cells were perfused with medium containing the drug at a flow rate of 20 dyne/cm^2. Medium was changed every 7 days. Cell number and viability (Presto Blue assay) was monitored overtime. In case of MMP-13 inhibition studies, MMP activity was assessed at day 4, and the percentage of progerin positive cells and the expression of phosphatase alkaline were evaluated at day 7.
The complexation of siRNAs with lipofectamine was allowed to proceed for 40 min at room temperature. […] The culture media was changed after 72 h.

MMP-7 = target: T1, MMP-7 (Homo sapiens, UniProt P09237); settings: cited from earlier work
T1 sequence (P09237 95-267): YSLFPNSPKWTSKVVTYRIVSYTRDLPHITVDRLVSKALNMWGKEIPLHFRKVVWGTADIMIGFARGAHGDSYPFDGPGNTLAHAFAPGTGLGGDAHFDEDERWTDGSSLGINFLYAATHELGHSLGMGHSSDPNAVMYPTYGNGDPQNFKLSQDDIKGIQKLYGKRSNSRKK

HOZ mSMCs = test: Detachment of progeria mouse SMCs under flow shear stress; assay type: cell-based; settings: flow conditions, media supplemented with inhibitor
Excerpt: Mice. Male^LmnaG609G/G609G, and wild-type were used (Osorio F G, Navarro C L, Cadinanos J, Lopez-Mejia I C, Quiros P M, Bartoli C, Rivera J, Tazi J, Guzman G, Varela I, Depetris D, de Carlos F, Cobo J, Andres V, De Sandre-Giovannoli A, Freije J M, Levy N, Lopez-Otin C. Splicing-directed therapy in a new mouse model of human accelerated aging. Science translational medicine. 2011;3:106ra107). Animal studies were approved by the local <<comité d'éthique pour l'expérimentation animale>> (Marseille Animal Care Commitee, Protocol n° 96-21122012) and conformed to the Directive 2010/63/EU of the European parliament regarding the protection of animals used for experimental and other scientific purposes. Mouse vSMCs (mSMC) were prepared from thoracic aortas of 6 or 18 week-old mice. Briefly, after fat tissue removal around aortic region, aorta was dissected from its origin to the proximity of the diaphragm. Aortas from two mice were put into HBSS 1×, on ice then rinse once in HBSS. Aorta were digested 10 minutes at 37° C. in enzyme solution freshly prepared the day of isolation (Collagenase 1 mg/ml, Soybean Trypsin inhibitor 1 mg/ml, elastase 0.744 units/ml—Worthington biochemical—, penicillin/streptomycin 1%, HBSS 1×). […] The loss of mSMC during time was assessed by the percentage of occupied area.
We also analyzed the effect of MMP13 and BB94 inhibition in HOZ mSMCs. […]

HGPS-iPSC SMCs [2] = test: Response to farnesyltransferase inhibitor: prelamin A and nuclear morphology by immunofluorescence; assay type: cell-based, human; settings: one dose 1 μM, after 48 h
Method: To evaluate whether HGPS-iPSC SMCs could respond to farnesyltransferase inhibitors, as shown for other progeria cell models, cells were treated with one dose of Tipifarnib (1 μM) and after 48 h cells were characterized for the expression of prelamin A. As expected, HGPS-iPSC SMCs accumulate nuclear prelamin A (approximately 95% of the cells), as shown by immunofluorescence (FIG. 12).
Immunofluorescence analysis—In an embodiment, cells were washed with PBS, fixed with 4% paraformaldehyde (Electron Microscopy Sciences) for 15 min at room temperature and washed again with PBS. […] Binding of primary antibodies to specific cells was detected with anti-mouse IgG Cy3 (Sigma) or anti-rabbit IgG Cy3 (JacksonImmunoResearch). Cell nuclei were stained with 4′, 6′-diamidino-2-phenylindole (DAPI) (Sigma) and the slides examined with a regular (Zeiss) or high-content fluorescence microscope (IN Cell 2200, GE Healthcare). Image) software was used to quantify the overall intensity of each image, which was then normalized for cell number.

Chain of MMP-9 (P14780 94-707, species assumed): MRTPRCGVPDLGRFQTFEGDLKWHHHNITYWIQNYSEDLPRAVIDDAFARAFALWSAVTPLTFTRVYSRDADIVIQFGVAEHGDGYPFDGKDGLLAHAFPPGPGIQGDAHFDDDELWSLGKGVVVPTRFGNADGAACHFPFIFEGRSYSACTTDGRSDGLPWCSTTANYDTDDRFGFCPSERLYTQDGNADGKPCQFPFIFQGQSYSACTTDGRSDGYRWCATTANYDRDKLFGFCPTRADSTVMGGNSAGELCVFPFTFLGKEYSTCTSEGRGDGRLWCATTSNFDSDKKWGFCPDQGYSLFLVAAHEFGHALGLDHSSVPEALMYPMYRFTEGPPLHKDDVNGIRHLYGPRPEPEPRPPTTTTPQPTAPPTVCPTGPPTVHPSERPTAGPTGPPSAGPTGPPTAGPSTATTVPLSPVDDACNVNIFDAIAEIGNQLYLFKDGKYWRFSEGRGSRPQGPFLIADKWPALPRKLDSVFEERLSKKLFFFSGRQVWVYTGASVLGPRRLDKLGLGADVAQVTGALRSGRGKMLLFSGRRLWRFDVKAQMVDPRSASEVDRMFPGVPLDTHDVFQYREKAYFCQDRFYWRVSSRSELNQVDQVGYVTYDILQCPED

For `CNC(=O)[C@H](Cc1ccccc1)NC(=O)[C@H](CC(C)C)[C@H](CSc1cccs1)C(=O)NO` [Batimastat, (2R,3S)-N4-Hydroxy-2-isobutyl-N1-[(2S)-1-(methylamino)-1-oxo-3-phenyl-2-propanyl]-3-[(2-thienylsulfanyl)methyl]succinamide], the IC50 (MMP-9) is listed as ≤ 20 nM, the “solubility of the compound” value (LmnaG609G/G609G mice; 3 mg/mL in PBS, IP injection) is listed as “low solubility” and the “number of SMCs in aortic arch” value (LmnaG609G/G609G mice; IP 30 mg/Kg/day, 5 times per week, 6 weeks, cell nuclei counting and qRT-PCR, versus untreated animals) is listed as “higher number of SMCs than untreated animals”. The “progerin in cells isolated from aortic arch” value (LmnaG609G/G609G mice; IP 30 mg/Kg/day, 6 weeks) was “No evidence of decrease of progerin”, the “intra-abdominal accumulation (precipitate)” value (LmnaG609G/G609G mice; IP 30 mg/Kg/day, treatment reduced from 10 to 6 weeks) was “intra-abdominal massive accumulation” and the “HGPS-iPSC SMC detachment” value (HGPS-iPSC SMCs [1]) was “decreased significantly the detachment”. The IC50 (MMP-7) was ≤ 20 nM and the “detachment of HOZ mSMCs” value (HOZ mSMCs) was “significantly delayed”.

For `NC(=O)N1CCC(CC(=O)N2CCC([C@H]3c4ncc(Br)cc4CCc4cc(Cl)cc(Br)c43)CC2)CC1` [Lonafarnib], the cellular detachment (HGPS-iPSC SMCs [1]; HGPS-iPSC SMC clone 1, arterial flow, Tipifarnib 1 μM, Lonafarnib 20 μM) was “able to decrease cellular detachment”.

For `Cc1cc(CNC(=O)c2cc(C(=O)NCc3ccc(F)c(C)c3)ncn2)ccc1F` [MMP-13 inhibitor, pyrimidine-4,6-dicarboxylic acid, bis-(4-fluoro-3-methyl-benzylamide)], the “HGPS-iPSC SMC detachment” value (HGPS-iPSC SMCs [1]) was “decreased significantly the detachment” and the “detachment of HOZ mSMCs” value (HOZ mSMCs) was “significantly delayed”.

With `Cn1cncc1[C@@](N)(c1ccc(Cl)cc1)c1ccc2c(c1)c(-c1cccc(Cl)c1)cc(=O)n2C` [Tipifarnib] the “cells accumulating nuclear prelamin A” value (HGPS-iPSC SMCs [2]) was “approximately 95 % of the cells”.

In the case of `O=P([O-])([O-])OP(=O)([O-])[O-].[Na+].[Na+].[Na+].[Na+]` [sodium pyrophosphate], the SMC detachment (HGPS-iPSC SMCs [1]; calcification inhibition, sodium pyrophosphate 0.9 mM, arterial flow) is reported as “significant decreased in SMC detachment”.
